Test results from patent US10988477B2 (Merck Patent GmbH, priority 2018, dated 2021).

Target: GCN2 kinase (Homo sapiens, UniProt Q9P2K8)
Assay: GCN2 enzyme inhibition assay (Transcreener ADP2 fluorescence polarization)
Type: biochemical
Conditions: Enzyme activity for compounds of Formula IV; Ki(app), 280 μM ATP, 25° C.
Method in brief: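 4 nM GCN2 + 200 μM (RS)7 + compound (0–8 μM), 10 min preinc.; start with ATP (280 μM final); 1 h, 25 °C; pH 7.5 Tris/NaCl/MgCl2/DTT; ADP FP readout; IC50, Ki(app) via tight-binding fit.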

Sequence of GCN2 kinase (Q9P2K8 whole entry): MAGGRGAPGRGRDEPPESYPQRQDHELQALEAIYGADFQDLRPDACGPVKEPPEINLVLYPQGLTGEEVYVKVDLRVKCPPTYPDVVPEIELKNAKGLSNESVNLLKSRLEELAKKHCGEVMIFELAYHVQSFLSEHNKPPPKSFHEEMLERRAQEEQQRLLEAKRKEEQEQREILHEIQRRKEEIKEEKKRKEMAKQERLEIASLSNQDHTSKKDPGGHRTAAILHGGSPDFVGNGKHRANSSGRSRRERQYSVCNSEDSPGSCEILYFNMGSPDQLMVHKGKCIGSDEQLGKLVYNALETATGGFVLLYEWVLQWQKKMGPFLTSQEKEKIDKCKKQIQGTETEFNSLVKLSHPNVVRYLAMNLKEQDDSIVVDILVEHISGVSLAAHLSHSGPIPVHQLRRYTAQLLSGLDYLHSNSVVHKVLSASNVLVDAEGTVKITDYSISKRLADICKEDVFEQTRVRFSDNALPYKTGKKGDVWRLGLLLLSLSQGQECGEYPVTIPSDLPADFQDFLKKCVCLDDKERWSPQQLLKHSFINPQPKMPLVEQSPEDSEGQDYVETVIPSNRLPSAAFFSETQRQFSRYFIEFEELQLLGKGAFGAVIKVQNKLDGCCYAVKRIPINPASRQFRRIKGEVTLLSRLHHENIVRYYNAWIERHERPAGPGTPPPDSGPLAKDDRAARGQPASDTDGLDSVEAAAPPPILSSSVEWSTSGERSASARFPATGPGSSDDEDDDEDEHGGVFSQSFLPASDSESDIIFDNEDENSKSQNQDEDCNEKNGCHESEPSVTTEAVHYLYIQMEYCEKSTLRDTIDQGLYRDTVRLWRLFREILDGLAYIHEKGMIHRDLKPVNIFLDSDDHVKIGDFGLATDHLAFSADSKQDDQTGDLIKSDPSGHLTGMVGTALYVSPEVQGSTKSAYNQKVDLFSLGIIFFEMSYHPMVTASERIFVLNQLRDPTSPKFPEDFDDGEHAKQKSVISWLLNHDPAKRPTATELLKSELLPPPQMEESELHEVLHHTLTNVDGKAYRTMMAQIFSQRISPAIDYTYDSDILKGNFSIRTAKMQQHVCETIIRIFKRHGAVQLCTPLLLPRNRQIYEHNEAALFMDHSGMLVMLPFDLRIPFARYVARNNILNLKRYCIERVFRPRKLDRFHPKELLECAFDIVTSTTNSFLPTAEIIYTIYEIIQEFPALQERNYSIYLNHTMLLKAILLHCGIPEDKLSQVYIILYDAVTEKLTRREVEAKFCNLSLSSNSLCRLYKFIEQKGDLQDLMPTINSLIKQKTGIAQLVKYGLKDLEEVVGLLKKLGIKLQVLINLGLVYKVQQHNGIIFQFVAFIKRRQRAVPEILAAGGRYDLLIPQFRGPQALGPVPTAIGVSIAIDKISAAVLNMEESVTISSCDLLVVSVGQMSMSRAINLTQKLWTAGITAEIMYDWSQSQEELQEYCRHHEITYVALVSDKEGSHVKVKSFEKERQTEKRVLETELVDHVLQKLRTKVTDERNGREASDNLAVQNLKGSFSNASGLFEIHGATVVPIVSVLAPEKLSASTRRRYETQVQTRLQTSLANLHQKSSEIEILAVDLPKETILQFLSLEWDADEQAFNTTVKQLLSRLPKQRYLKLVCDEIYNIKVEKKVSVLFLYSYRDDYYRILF

| SMILES | Ki |
| --- | --- |
| NC(=O)c1cn2c(-c3nccc(N4CCN5C(=O)CCCC5C4)n3)cnc2cn1 (single isomer, unassigned) [IV-274, 3-(4-(6-Oxooctahydro-2H-pyrido[1,2-a]pyrazin-2-yl)pyrimidin-2-yl)imidazo[1,2-a]pyrazine-6-carboxamide] | 10 to 100 nM |
| CC(=O)NC1CCN(c2ccnc(-c3cnc4cnc(C(N)=O)cn34)n2)CC1 [IV-248, 3-(4-(4-Acetamidopiperidin-1-yl)pyrimidin-2-yl)imidazo[1,2-a]pyrazine-6-carboxamide] | 10 to 100 nM |
| C[C@H]1[C@@H](c2cn[nH]c2)OCCN1c1ccnc(-c2cnc3cnc(Br)cn23)n1 (racemic) [IV-306, Cis-4-(2-(6-Bromoimidazo[1,2-a]pyrazin-3-yl)pyrimidin-4-yl)-3-methyl-2-(1H-pyrazol-4-yl)morpholine] | < 10 nM |
| OCCN1CCN(c2ccnc(-c3cnc4cnc(C(F)(F)F)cn34)n2)CC1 [IV-617, 2-(4-(2-(6-(Trifluoromethyl)imidazo[1,2-a]pyrazin-3-yl)pyrimidin-4-yl)piperazin-1-yl)ethan-1-ol] | 100 to 1000 nM |
| CS(=O)(=O)CC1CCCN(c2ccnc(-c3cnc4cnc(C(F)(F)F)cn34)n2)C1 (stereo not shown) [IV-482, 3-(4-(3-((Methylsulfonyl)methyl)piperidin-1-yl)pyrimidin-2-yl)-6-(trifluoromethyl)imidazo[1,2-a]pyrazine] | 100 to 1000 nM |
| O=C(Nc1cccnc1)[C@H]1CCCN(c2ccnc(-c3cnc4cnc(C(F)(F)F)cn34)n2)C1 [IV-723] | 100 to 1000 nM |
| NC(=O)N1CCN(c2ccnc(-c3cnc4cnc(C(F)(F)F)cn34)n2)CC1 [IV-612, 4-(2-(6-(Trifluoromethyl)imidazo[1,2-a]pyrazin-3-yl)pyrimidin-4-yl)piperazine-1-carboxamide] | 100 to 1000 nM |
| CS(=O)(=O)C1CCCN(c2ccnc(-c3cnc4cnc(C(F)(F)F)cn34)n2)C1 (stereo not shown) [IV-483, 3-(4-(3-(Methylsulfonyl)piperidin-1-yl)pyrimidin-2-yl)-6-(trifluoromethyl)imidazo[1,2-a]pyrazine] | 100 to 1000 nM |
| NC(=O)c1cn2c(-c3nccc(N4CCOCC4)n3)cnc2cn1 [IV-240] | 100 to 1000 nM |
| FC(F)(F)c1cn2c(-c3nccc(N4CCC(Nc5cn[nH]c5)C4)n3)cnc2cn1 (stereo not shown) [IV-606, N-(1-(2-(6-(Trifluoromethyl)imidazo[1,2-a]pyrazin-3-yl)pyrimidin-4-yl)pyrrolidin-3-yl)-1H-pyrazol-4-amine] | 100 to 1000 nM |
| NC(=O)c1cn2c(-c3cccc(N4CCCC(CO)C4)n3)cnc2cn1 (stereo not shown) [IV-220, 3-(6-(3-(Hydroxymethyl)piperidin-1-yl)pyridin-2-yl)imidazo[1,2-a]pyrazine-6-carboxamide] | 10 to 100 nM |
| FC(F)(F)c1cn2c(-c3nccc(N4CCCC(c5nnco5)C4)n3)cnc2cn1 (stereo not shown) [IV-656, 2-(1-(2-(6-(Trifluoromethyl)imidazo[1,2-a]pyrazin-3-yl)pyrimidin-4-yl)piperidin-3-yl)-1,3,4-oxadiazole] | 100 to 1000 nM |
| O=C1CCCC2CN(c3ccnc(-c4cnc5cnc(Cl)cn45)n3)CCN12 (single isomer, unassigned) [IV-294, 2-(2-(6-Chloroimidazo[1,2-a]pyrazin-3-yl)pyrimidin-4-yl)octahydro-6H-pyrido[1,2-a]pyrazin-6-one] | 10 to 100 nM |
| NCCC1CN(c2ccnc(-c3cnc4cnc(C(F)(F)F)cn34)n2)CCO1 (stereo not shown) [IV-486] | 100 to 1000 nM |
| NC(=O)c1cn2c(-c3cccc(N4CCN(C(=O)C5CC5)CC4)n3)cnc2cn1 [IV-284, 3-(6-(4-(Cyclopropanecarbonyl)piperazin-1-yl)pyridin-2-yl)imidazo[1,2-a]pyrazine-6-carboxamide] | 100 to 1000 nM |
| C[C@H]1NCCN(c2ccnc(-c3cnc4cnc(C(F)(F)F)cn34)n2)[C@H]1c1cn[nH]c1 (relative stereo) [IV-208, Cis-3-(4-(3-Methyl-2-(1H-pyrazol-4-yl)piperazin-1-yl)pyrimidin-2-yl)-6-(trifluoromethyl)imidazo[1,2-a]pyrazine] | 10 to 100 nM |
| N=S1(=O)CCN(c2ccnc(-c3cnc4cnc(C(F)(F)F)cn34)n2)CC1 [IV-729] | > 1000 nM |

The next lines start with the values.

| Ki | SMILES |
| --- | --- |
| 10 to 100 nM | CC1CNC(c2cn[nH]c2)CN1c1ccnc(-c2cnc3cnc(C(F)(F)F)cn23)n1 (single isomer, unassigned) [IV-333, 3-(4-(2-Methyl-5-(1H-pyrazol-4-yl)piperazin-1-yl)pyrimidin-2-yl)-6-(trifluoromethyl)imidazo[1,2-a]pyrazine] |
| 100 to 1000 nM | Nc1cnn(C2CCN(c3ccnc(-c4cnc5cnc(C(F)(F)F)cn45)n3)C2)c1 (stereo not shown) [IV-478, 1-(1-(2-(6-(Trifluoromethyl)imidazo[1,2-a]pyrazin-3-yl)pyrimidin-4-yl)pyrrolidin-3-yl)-1H-pyrazol-4-amine] |
| < 10 nM | FC(F)(F)c1cn2c(-c3ccnc(N4CCOC(c5cn[nH]c5)C4)n3)cnc2cn1 (single isomer, unassigned) [IV-186, 2-(1H-Pyrazol-4-yl)-4-(4-(6-(trifluoromethyl)imidazo[1,2-a]pyrazin-3-yl)pyrimidin-2-yl)morpholine] |
| 100 to 1000 nM | Cc1c[nH]nc1C1CN(c2ccnc(-c3cnc4cnc(C(F)(F)F)cn34)n2)CCO1 (stereo not shown) [IV-657, 2-(4-Methyl-1H-pyrazol-3-yl)-4-(2-(6-(trifluoromethyl)imidazo[1,2-a]pyrazin-3-yl)pyrimidin-4-yl)morpholine] |
| 100 to 1000 nM | CN1CCN(c2ccnc(-c3cnc4cnc(C(F)(F)F)cn34)n2)CC1C(N)=O (stereo not shown) [IV-596, 1-Methyl-4-(2-(6-(trifluoromethyl)imidazo[1,2-a]pyrazin-3-yl)pyrimidin-4-yl)piperazine-2-carboxamide] |
| 100 to 1000 nM | FC(F)(F)c1cn2c(-c3nccc(N4CCCC(n5ccc(C(F)(F)F)n5)C4)n3)cnc2cn1 (stereo not shown) [IV-664, 6-(Trifluoromethyl)-3-(4-(3-(3-(trifluoromethyl)-1H-pyrazol-1-yl)piperidin-1-yl)pyrimidin-2-yl)imidazo[1,2-a]pyrazine] |
| 100 to 1000 nM | CC(=O)N1CCN(c2ccnc(-c3cnc4cnc(-c5cn(C)nc5C)cn34)n2)CC1 [IV-307, 1-(4-(2-(6-(1,3-Dimethyl-1H-pyrazol-4-yl)imidazo[1,2-a]pyrazin-3-yl)pyrimidin-4-yl)piperazin-1-yl)ethan-1-one] |
| 10 to 100 nM | FC(F)(F)c1cn2c(-c3ccnc(N4CCOC(c5cn[nH]c5)C4)n3)cnc2cn1 (single isomer, unassigned) [IV-185, 2-(1H-Pyrazol-4-yl)-4-(4-(6-(trifluoromethyl)imidazo[1,2-a]pyrazin-3-yl)pyrimidin-2-yl)morpholine] |
| 100 to 1000 nM | CC1CCN(c2ccnc(-c3cnc4cnc(C(F)(F)F)cn34)n2)CC1n1ccnc1 (stereo not shown) [IV-320, 3-(4-(3-(1H-Imidazol-1-yl)-4-methylpiperidin-1-yl)pyrimidin-2-yl)-6-(trifluoromethyl)imidazo[1,2-a]pyrazine] |

Same assay, conditions: compounds of Formula II; 280 μM ATP, 4 nM GCN2 kinase

| Ki | IC50 | SMILES |
| --- | --- | --- |
| 10 to 1000 nM |  | CC(C)(O)C1CCCN(c2cc(-c3cnc4ccc(C(F)F)nn34)ncn2)C1 (single isomer, unassigned) [II-614, 2-(1-(6-(6-(Difluoromethyl)imidazo[1,2-b]pyridazin-3-yl)pyrimidin-4-yl)piperidin-3-yl)propan-2-ol] |
| 10 to 1000 nM |  | CC(NS(C)(=O)=O)C1CCCN(c2cc(-c3cnc4ccc(C(F)F)nn34)ncn2)C1 (stereo not shown) [II-619, N-(1-(1-(6-(6-(Difluoromethyl)imidazo[1,2-b]pyridazin-3-yl)pyrimidin-4-yl)piperidin-3-yl)ethyl)methanesulfonamide] |
| > 1000 nM |  | Clc1ccc2ncc(-c3ccnc(N4CCNCC4)c3)n2n1 [II-220, 6-Chloro-3-(2-(piperazin-1-yl)pyridin-4-yl)imidazo[1,2-b]pyridazine] |
| 10 to 1000 nM |  | CCC(NS(C)(=O)=O)C1CN(c2cc(-c3cnc4ccc(C(F)F)nn34)ncn2)CCO1 (stereo not shown) [II-572, N-(1-(4-(6-(6-(Difluoromethyl)imidazo[1,2-b]pyridazin-3-yl)pyrimidin-4-yl)morpholin-2-yl)propyl)methanesulfonamide] |
| 10 to 1000 nM |  | CC1C(N=S(C)(C)=O)CCCN1c1cc(-c2cnc3ccc(C(F)F)nn23)ncn1 (single isomer, unassigned) [II-594, ((1-(6-(6-(Difluoromethyl)imidazo[1,2-b]pyridazin-3-yl)pyrimidin-4-yl)-2-methylpiperidin-3-yl)imino)dimethyl-λ^6-sulfanone] |
| > 1000 nM |  | FC(F)(F)c1ccc2ncc(-c3cc(-c4cnn(C5CCOCC5)c4)ncn3)n2n1 [II-708, 3-[6-(1-Tetrahydropyran-4-ylpyrazol-4-yl)pyrimidin-4-yl]-6-(trifluoromethyl)imidazo[1,2-b]pyridazine] |
|  | > 1000 nM | Cc1nn(C)cc1C1CN(c2cc(-c3cnc4ccc(C(F)(F)F)nn34)ncn2)C[C@@H](C)O1 (stereo in doubt) [II-761, (2S,6R)-2-(1,3-dimethyl-1H-pyrazol-4-yl)-6-methyl-4-(6-(6-(trifluoromethyl)imidazo[1,2-b]pyridazin-3-yl)pyrimidin-4-yl)morpholine] |
| 10 to 1000 nM |  | N#CCC1CN(c2cc(-c3cnc4ccc(C(F)F)nn34)ncn2)CCO1 (stereo not shown) [II-512, 2-(4-(6-(6-(Difluoromethyl)imidazo[1,2-b]pyridazin-3-yl)pyrimidin-4-yl)morpholin-2-yl)acetonitrile] |
| 10 to 1000 nM |  | CCC(NS(C)(=O)=O)C1CN(c2cc(-c3cnc4ccc(C(F)F)nn34)ncn2)CCO1 (stereo not shown) [II-571, N-(1-(4-(6-(6-(Difluoromethyl)imidazo[1,2-b]pyridazin-3-yl)pyrimidin-4-yl)morpholin-2-yl)propyl)methanesulfonamide] |
|  | > 1000 nM | C[C@@H]1[C@H](CNS(C)(=O)=O)CCCN1c1cc(-c2cnc3ccc(C(F)F)nn23)ncn1 (stereo in doubt) [II-754, N-(((2R,3S)-1-(6-(6-(difluoromethyl)imidazo[1,2-b]pyridazin-3-yl)pyrimidin-4-yl)-2-methylpiperidin-3-yl)methyl)methanesulfonamide] |

Same assay, conditions: compounds of Formula V; 280 μM ATP, 4 nM GCN2 kinase

| Ki | SMILES |
| --- | --- |
| 100 to 1000 nM | O=C1CCN(c2ccnc(-c3cnc4sc(C(F)(F)F)cn34)n2)CCN1 [Compound V-8, 1-[2-[2-(Trifluoromethyl)imidazo[2,1-b]thiazol-5-yl]pyrimidin-4-yl]-1,4-diazepan-5-one] |
